Assay results: ChEMBL document CHEMBL3885881, “DrugMatrix”

Species: Rattus norvegicus
Test: DrugMatrix - Regimen: Daily Repeat
Format: toxicity, organism-based, Sprague-Dawley
Set-up: regimen Daily Repeat, gender Male, age 6-8 weeks
Settings: in vivo, sc, route subcutaneous, […]; for ABSOLUTE BASOPHIL / ABSOLUTE EOSINOPHIL / ABSOLUTE LYMPHOCYTE / ABSOLUTE MONOCYTE / ABSOLUTE SEGMENTED NEUTROPHIL / BASOPHIL / EOSINOPHIL / ERYTHROCYTE COUNT / HEMATOCRIT / LEUKOCYTE COUNT / MEAN CORPUSCULAR HEMOGLOBIN / MEAN CORPUSCULAR HEMOGLOBIN CONCENTRATION / MEAN CORPUSCULAR VOLUME / MONOCYTE / NEUTROPHIL / NUCLEATED RED BLOOD CELLS / PLATELET COUNT: tissue Blood; for ALANINE AMINOTRANSFERASE / ALBUMIN / ALKALINE PHOSPHATASE / ASPARTATE AMINOTRANSFERASE / BLOOD UREA NITROGEN / CHLORIDE / CHOLESTEROL / CREATINE PHOSPHOKINASE / CREATININE / GLUCOSE / LACTATE DEHYDROGENASE / LIPASE / PHOSPHORUS / POTASSIUM / TOTAL BILIRUBIN / URIC ACID: tissue Plasma
[1] = 79 mg/kg, 120 h, dose level High, time 5 day
[2] = 72 h, dose 1.3 mg/Kg, dose level Low, time 3 day
[3] = 120 h, dose 1.3 mg/Kg, dose level Low, time 5 day

In the case of `C[C@H]1C[C@H]2[C@@H]3CCC4=CC(=O)C=C[C@]4(C)[C@@]3(F)[C@@H](O)C[C@]2(C)[C@@]1(O)C(=O)CO` [BETAMETHASONE], the “ABSOLUTE BASOPHIL” value [1] is reported as 0 CELLS/uL, the “ABSOLUTE EOSINOPHIL” value [1] is reported as 0 CELLS/uL and the “ABSOLUTE LYMPHOCYTE” value [1] is reported as 513.67 CELLS/uL. The “ABSOLUTE MONOCYTE” value [1] was 201.67 CELLS/uL, the “ABSOLUTE SEGMENTED NEUTROPHIL” value [1] was 19451.33 CELLS/uL and the BASOPHIL [1] was 0%. The EOSINOPHIL [1] was 0%, the “ERYTHROCYTE COUNT” value [1] was 5.57 x10E6/uL and the HEMATOCRIT [1] was 34.53%. For the same compound, the “LEUKOCYTE COUNT” value [1] was 20.17 x10E3/uL, the “MEAN CORPUSCULAR HEMOGLOBIN” value [1] was 23.77 pg and the “MEAN CORPUSCULAR HEMOGLOBIN CONCENTRATION” value [1] was 38.47 G/DL. For the same compound, the “MEAN CORPUSCULAR VOLUME” value [1] was 61.87 fL, the MONOCYTE [1] was 1% and the NEUTROPHIL [1] was 95%. For the same compound, the “NUCLEATED RED BLOOD CELLS” value [1] was 0 /100WBC, the “PLATELET COUNT” value [1] was 893 x10E3/uL and the “ALANINE AMINOTRANSFERASE” value [1] was 251.67 u/L. For the same compound, the ALBUMIN [1] was 4.5 G/DL, the “ALKALINE PHOSPHATASE” value [1] was 329 u/L and the “ASPARTATE AMINOTRANSFERASE” value [1] was 307.33 u/L. For the same compound, the “BLOOD UREA NITROGEN” value [1] was 21.67 mg/dL, the CHLORIDE [1] was 93.67 MEQ/L and the CHOLESTEROL [1] was 105 mg/dL. For the same compound, the “CREATINE PHOSPHOKINASE” value [1] was 200.33 u/L, the CREATININE [1] was 0.3 mg/dL and the GLUCOSE [1] was 505.67 mg/dL. The “LACTATE DEHYDROGENASE” value [1] was 602 u/L, the LIPASE [1] was 11.33 u/L and the PHOSPHORUS [1] was 11.1 mg/dL. The POTASSIUM [1] was 5.39 MEQ/L, the “TOTAL BILIRUBIN” value [1] was 0.23 mg/dL and the “URIC ACID” value [1] was 1 mg/dL. For the same compound, the “ABSOLUTE BASOPHIL” value [2] was 0 CELLS/uL, the “ABSOLUTE EOSINOPHIL” value [2] was 15.33 CELLS/uL and the “ABSOLUTE LYMPHOCYTE” value [2] was 4290.33 CELLS/uL. The “ABSOLUTE MONOCYTE” value [2] was 15.33 CELLS/uL, the “ABSOLUTE SEGMENTED NEUTROPHIL” value [2] was 845.67 CELLS/uL and the BASOPHIL [2] was 0%. The EOSINOPHIL [2] was 0.33%, the “ERYTHROCYTE COUNT” value [2] was 5.47 x10E6/uL and the HEMATOCRIT [2] was 33.27%. For the same compound, the “LEUKOCYTE COUNT” value [2] was 5.17 x10E3/uL, the “MEAN CORPUSCULAR HEMOGLOBIN” value [2] was 24.57 pg and the “MEAN CORPUSCULAR HEMOGLOBIN CONCENTRATION” value [2] was 40.37 G/DL. The “MEAN CORPUSCULAR VOLUME” value [2] was 60.9 fL, the MONOCYTE [2] was 0.33% and the NEUTROPHIL [2] was 17%. For the same compound, the “NUCLEATED RED BLOOD CELLS” value [2] was 0 /100WBC, the “PLATELET COUNT” value [2] was 1195.33 x10E3/uL and the “ALANINE AMINOTRANSFERASE” value [2] was 49.67 u/L. For the same compound, the ALBUMIN [2] was 5.1 G/DL, the “ALKALINE PHOSPHATASE” value [2] was 401.67 u/L and the “ASPARTATE AMINOTRANSFERASE” value [2] was 97 u/L. The “BLOOD UREA NITROGEN” value [2] was 15 mg/dL, the CHLORIDE [2] was 98.67 MEQ/L and the CHOLESTEROL [2] was 79.33 mg/dL. For the same compound, the “CREATINE PHOSPHOKINASE” value [2] was 415.33 u/L, the CREATININE [2] was 0.19 mg/dL and the GLUCOSE [2] was 120 mg/dL. For the same compound, the “LACTATE DEHYDROGENASE” value [2] was 165.33 u/L, the LIPASE [2] was 11 u/L and the PHOSPHORUS [2] was 11.13 mg/dL. The POTASSIUM [2] was 6.2 MEQ/L, the “TOTAL BILIRUBIN” value [2] was 0.17 mg/dL and the “URIC ACID” value [2] was 0.9 mg/dL. The “ABSOLUTE BASOPHIL” value [3] was 0 CELLS/uL, the “ABSOLUTE EOSINOPHIL” value [3] was 75.67 CELLS/uL and the “ABSOLUTE LYMPHOCYTE” value [3] was 4789.67 CELLS/uL. The “ABSOLUTE MONOCYTE” value [3] was 25 CELLS/uL, the “ABSOLUTE SEGMENTED NEUTROPHIL” value [3] was 1976.33 CELLS/uL and the BASOPHIL [3] was 0%. For the same compound, the EOSINOPHIL [3] was 1%, the “ERYTHROCYTE COUNT” value [3] was 6.27 x10E6/uL and the HEMATOCRIT [3] was 38.47%. The “LEUKOCYTE COUNT” value [3] was 6.87 x10E3/uL, the “MEAN CORPUSCULAR HEMOGLOBIN” value [3] was 24.07 pg and the “MEAN CORPUSCULAR HEMOGLOBIN CONCENTRATION” value [3] was 39.23 G/DL. For the same compound, the “MEAN CORPUSCULAR VOLUME” value [3] was 61.3 fL, the MONOCYTE [3] was 0.33% and the NEUTROPHIL [3] was 30.33%. For the same compound, the “NUCLEATED RED BLOOD CELLS” value [3] was 0 /100WBC, the “PLATELET COUNT” value [3] was 1459.67 x10E3/uL and the “ALANINE AMINOTRANSFERASE” value [3] was 71 u/L. For the same compound, the ALBUMIN [3] was 5.1 G/DL, the “ALKALINE PHOSPHATASE” value [3] was 397 u/L and the “ASPARTATE AMINOTRANSFERASE” value [3] was 114 u/L. The “BLOOD UREA NITROGEN” value [3] was 17.33 mg/dL, the CHLORIDE [3] was 102.67 MEQ/L and the CHOLESTEROL [3] was 70.33 mg/dL. The “CREATINE PHOSPHOKINASE” value [3] was 195.67 u/L, the CREATININE [3] was 0.16 mg/dL and the GLUCOSE [3] was 164.67 mg/dL. For the same compound, the “LACTATE DEHYDROGENASE” value [3] was 354.67 u/L, the LIPASE [3] was 9.67 u/L and the PHOSPHORUS [3] was 13.03 mg/dL. For the same compound, the POTASSIUM [3] was 7 MEQ/L, the “TOTAL BILIRUBIN” value [3] was 0.2 mg/dL and the “URIC ACID” value [3] was 1.8 mg/dL.
